Data reported in patent publication US7825263B2, “Nitrooxyderivatives of carvedilol and other beta blockers as antihypertensive” (Nicox S.A., priority 2003, dated 2010).

System: PC12 cells
Test: Measurements of cGMP in rat PC12 cell line (cGMP accumulation, enzyme immunoassay)
Assay type: cell-based
Details: for EC50: PC-12, 0.75 h
Protocol: Measurements of cGMP in Rat PC12 Cell Line
cGMP contributes to the function and interaction of several vascular cell types and its dysfunction is involved in major cardiovascular diseases such as hypertension, diabetic complications, atherosclerosis, and tissue infarction. Therefore the extent of cGMP formation elicited by the compounds of the inventions was evaluated in the rat pheochromocytoma (PC12) cell line.
Cells were maintained at 37° C. in DMEM medium enriched with 10% horse serum and 5% foetal bovine serum under 5% CO2 atmosphere. At the time of experiments the cells were washed once with Hank's Balanced Salt Solution (HBSS) supplemented with 0.05% ascorbic acid and preincubated in the same buffer for 10 min in a floating water bath. After the preincubation step, cells were exposed for additional 45 min to either control conditions or increasing concentrations of test compounds ranging from 0.1 to 25 μM, in the presence of the phosphodiesterase inhibitor, IBMX (100 μM) and the NO-independent activator of soluble guanylyl cyclase, YC-1 (20 μM). The reaction was terminated by the removal of the incubating buffer and consecutive addition of 100 μl of absolute ethanol. The organic extracts were then evaporated to dryness and the residues dissolved in aqueous buffer for quantitative determination of intracellular cGMP levels using the cGMP enzyme immunoassay kit.
The obtained results reported in Table 1 are expressed as EC50 (μM) and efficacy Emax (% of vehicle). As shown in the table the nitroderivatives of carvedilol induced a consistent increase of intracellular cGMP formation in PC12 cell line. Conversely, this effect was not induced by the parent compound.

[1] = 45 min exposure, 0.1 to 25 μM test compound, in presence of IBMX (100 μM) and YC-1 (20 μM)

Compound: COc1ccccc1OCCNCC(O)COc1cccc2[nH]c3ccccc3c12 (centres unmarked) [Carvedilol]
- EC50, cGMP accumulation in PC12 cells [1]: Not effective
- Emax (% of vehicle), cGMP accumulation in PC12 cells [1]: Not effective
- increase of intracellular cGMP formation in PC12 cell line (in words) (summary statement on Table 1): not induced

Compound: COc1ccccc1OCCNCC(COc1cccc2[nH]c3ccccc3c12)OC(=O)c1ccc(CO[N+](=O)[O-])cc1 (centres unmarked) [Compound of example 1, 4-(Nitrooxymethyl)benzoic acid 1-(9H-carbazol-4-yloxy)-3-[[2-(2-methoxyphenoxy)ethyl]amino]-2-propanoate]
- Emax (% of vehicle), cGMP accumulation in PC12 cells [1]: 480 % of vehicle
- EC50 [1]: 2.3 µM

Compound: COc1ccccc1OCCN(CC(O)COc1cccc2[nH]c3ccccc3c12)C(=O)c1ccc(CO[N+](=O)[O-])cc1 (centres unmarked) [Compound of example 3, 1-(9H-carbazol-4-yloxy)-3-[[2-(2-methoxyphenoxy)ethyl][(4-nitrooxymethyl)benzoyl]amino]-2-propanol]
- Emax (% of vehicle), cGMP accumulation in PC12 cells [1]: 565 % of vehicle
- EC50 [1]: 1.8 µM

Compound: COc1ccccc1OCCN(CC(O)COc1cccc2[nH]c3ccccc3c12)C(=O)CCO[N+](=O)[O-] (centres unmarked) [Compound of example 4]
- Emax (% of vehicle), cGMP accumulation in PC12 cells [1]: 395 % of vehicle
- EC50 [1]: 1.7 µM

Compound: COc1ccccc1OCCN(CC(O)COc1cccc2[nH]c3ccccc3c12)C(=O)CCCCCO[N+](=O)[O-] (centres unmarked) [Compound of example 5]
- Emax (% of vehicle), cGMP accumulation in PC12 cells [1]: 322 % of vehicle
- EC50 [1]: 0.6 µM
